Test results taken from patent publication EP4653435A1, “PRMT5-MTA INHIBITOR” (Suzhou Puhe Biopharma Co., Ltd., priority 2023, dated 2024).
Read-outs that look alike come from different tables or passages of the source.

Experiments:
[1] = test system: HCT116-MTAPwt; experiment: 2D antiproliferative assay (CTG cell viability), wild-type cells; format: cell-based; conditions: Homo sapiens, HCT-116, 7-10 days
Protocol: (§1) HCT116 wild-type and MTAP-deficient cells were cultured in McCoy's 5A medium containing 10% FBS and 1% penicillin-streptomycin, and cultured in a 37°C, 5% CO2 constant temperature incubator. 40 µL of cell suspension was introduced into each well of a 384-well microplate. 40 nL of different concentrations of test compounds were added to each well using an Echo, before culturing in a 37°C, 5% CO2 constant temperature incubator for 7-10 days. 40 µL of CTG solution (Promega, Cat No. G7573) was added to each well and incubated in a 37°C, 5% CO2 constant temperature incubator for 30 minutes in the dark.

[2] = test system: SDMA/HCT116-MTAPwt; experiment: In-cell arginine symmetric dimethylation inhibition (In-cell western, ICW), wild-type cells; format: cell-based; conditions: Homo sapiens, HCT-116, 96 hours
Protocol: (§2) 60 nL of different concentrations of compounds were added to each well using an Echo, and incubated at 37°C, 5% CO2 for 96 hours.
(§3) Next, 50 µL of 4% paraformaldehyde solution was added to each well and incubated at room temperature for 20 minutes to fix the cells. The solution in the wells was removed, and each well was rinsed four times with PBS solution containing 0.1% Tween 20 (PBST). To each well was then added 30 µL of ice-cold methanol. After standing at -20°C for 10 minutes, the methanol was removed and the wells washed four times with PBST. 30 µL of Odyssey blocking solution containing 0.5% Tween 20 was added to each well and shaken for 2 hours at room temperature. The blocking solution was removed and 30 µL of primary antibody (Symmetric Di-Methyl Arginine Motif [sdma-RG] MultiMab™ Rabbit mAb mix) diluted at 1:500 in Odyssey blocking solution containing 0.5% Tween 20 was added to each well. The plates were incubated overnight at 4°C, before removing the primary antibody and rinsing each well four times with PBST, 5 minutes per rinse. Secondary antibody (goat anti-rabbit IRDye 800CW, 1:800) and nuclear stain (DRAQ5, 1:10000) diluted in Odyssey blocking solution containing 0.5% Tween 20 were then added to each well before incubating at room temperature for 2 hours in the dark. The secondary antibody was removed, and the wells rinsed four times with PBST.
(§4) The sdme-RG and DRAQ5 signals were scanned at 800 nm and 700 nm respectively on a Li-Cor Odyssey instrument and the signal values recorded. The sdme-RG/DRAQ5 ratio was used to calculate the percentage inhibition of arginine symmetric dimethylation (SDMA), and the IC50 value calculated using GraphPad Prism software.

[3] = test system: SDMA/HCT116-MTAPdel; experiment: In-cell arginine symmetric dimethylation inhibition (In-cell western, ICW), MTAP-deficient cells; format: cell-based; conditions: for IC50: Homo sapiens, HCT-116, HCT116 MTAP-deficient cells, 96 hours
Protocol: as §2, §3, §4

[4] = test system: HCT116-MTAPdel; experiment: 2D antiproliferative assay (CTG cell viability), MTAP-deficient cells; format: cell-based; conditions: for IC50: Homo sapiens, HCT-116, HCT116 MTAP-deficient cells, 7-10 days, CTG, read-out: HCT116-MTAPdel/IC50/nM; for HCT116WT IMTAPdel selectivity: ratio IC50 wild type / MTAPdel, antiproliferation
Protocol: as §1

[5] = Mouse pharmacokinetics testing; format: in vivo, CD1 female mice
Protocol: CD1 female mice were used as test animals and administered the compounds orally/intravenously (oral dosage was 10 mg/kg and intravenous dosage was 2 mg/kg). Test protocol: Each oral and intravenous group consisted of three mice. […] Plasma drug concentrations after oral and intravenous administration were determined by LC/MS/MS, and the collected data analyzed using AB Sciex QTRAP 6500 software.

[6] = Liver microsomal stability assay, mouse; format: in vitro ADME; conditions: mouse liver microsomes 0.5 mg/mL, compound 1 µM, NADPH 1 mM, 60 minute
Protocol: (§7) The compounds to be tested were co-incubated with liver microsomes of different species with or without the addition of NADPH. The final concentration of the test compounds in the test system was 1 µM, the final concentration of NADPH was 1 mM, and the final concentration of liver microsomes was 0.5 mg/mL.

[7] = Liver microsomal stability assay, human
Protocol: as §7

[8] = Membrane permeability: Caco-2 assay; format: in vitro ADME; conditions: human; for efflux ratio: Caco-2, Efflux Ratio = Papp(B-A)/Papp(A-B); for Papp A→B / Papp B→A: Caco-2, apical pH 6.5, basolateral pH 7.4
Protocol: The membrane permeability of the molecules of the invention was evaluated. […] Efflux Ratio = Papp(B−A) /Papp(A−B) [formula]

[9] = test system: MDR1 (P-gp); experiment: in vitro; conditions: dog, MDCK-MDR1, pH 7.4
Protocol: (§5) The membrane permeability of the molecules of the present invention was evaluated to predict their permeability to the brain.
(§6) The specific procedure was: 1. MDCK-MDR1 cells were pre-cultured at a density of 1.56*10^6 cells/mL in a 96-well plate at 37°C for 7 days. 2. The MDCKII-MDR1 plate was taken out of the incubator, rinsed twice with pre-warmed HBSS (10 mM HEPES, pH 7.4), and then incubated at 37°C for 30 minutes. 3. The stock solution of the compound to be tested was diluted with DMSO to obtain a 0.2 mM solution, and then diluted with HBSS (10 mM HEPES, pH 7.4) to obtain a 1 µM working solution. A blank control group was also diluted with DMSO to obtain a 0.2 mM solution, and then diluted with HBSS (10 mM HEPES, pH 7.4) to obtain a 1 µM working solution. The final concentration of DMSO in the culture system was 0.5%. 4. The transport rate of the drug in the apical to basolateral direction was determined: 125 µL of the 1 µM test compound solution was added to a Transwell insert (top compartment), before immediately transferring a 50 µL sample (D0 sample) from the top comparment to a new 96-well plate. The receiving plate wells (basolateral compartment) were filled with 235 µL HBSS (10 mM HEPES, pH 7.4) and incubated at 37°C for 2 hours. 5. Upon completion of the incubation, 50 µL samples were transferred from the donor and acceptor sides to the wells of a new 96-well plate, before adding 4 volumes of cold acetonitrile containing an appropriate internal standard (IS). Prior to LC-MS/MS analysis, 100 µL of the supernatant was taken and mixed with an appropriate volume of ultrapure water. Papp = (VA×[drug]acceptor)/(Area×Time×[drug]initial,donor) [formula] where VA is the volume of the receptor pores (unit:mL), Area is the surface area of the membrane (0.143 cm^2 for a Transwell-96 well permeable support), and time is the total transport time in seconds. Efflux Ratio = Papp(B−A) /Papp(A−B) [formula]

[10] = in vitro; conditions: dog, MDCK-MDR1, pH 7.4
Protocol: as §5, §6

[11] = female, CD1, mouse, in vivo, iv, 2 mg/kg
[12] = female, CD1, mouse, in vivo, po, 10 mg/kg

## C[C@H]1CC[C@H](c2ccc3scnc3c2)N(C(=O)C(=O)Nc2cnc(N)c3c2cnn3C)C1 [Compound P3b]
[1]
  IC50: 275 nM
[2]
  IC50: 578 nM
[3]
  IC50: 0.6 nM
[4]
  IC50: 2 nM
[5]; PO (10 mg/kg) vs IV (2 mg/kg), CD1 female mice
  F: 31%
[5]; mouse, IV (2 mg/kg), CD1 female mice, plasma, read-out: AUC0-24
  AUC(0-t): 383 ng·h/mL
[5]; mouse, IV (2 mg/kg), CD1 female mice, plasma, read-out: C0
  C0: 1650 ng/mL
[5]; mouse, IV (2 mg/kg), CD1 female mice, plasma, read-out: Cl
  clearance: 86.6 mL/min/kg
[5]; mouse, IV (2 mg/kg), CD1 female mice, plasma, read-out: T1/2 (converted)
  half-life: 0.32 h
[5]; mouse, PO (10 mg/kg), CD1 female mice, plasma, read-out: AUC0-24
  AUC(0-t): 586 ng·h/mL
[5]; mouse, PO (10 mg/kg), CD1 female mice, plasma, read-out: Cmax
  Cmax: 883 ng/mL
[5]; mouse, PO (10 mg/kg), CD1 female mice, plasma, read-out: T1/2 (converted)
  half-life: 1.1 h
[5]; mouse, PO (10 mg/kg), CD1 female mice, plasma, read-out: Tmax
  Tmax: 0.25 h

## Cc1cc2cc(C(=O)N(Cc3ccc(C(F)(F)F)cn3)[C@H](C)c3ncccn3)ccc2nc1N [AM9747, reference compound]
[1]
  IC50: 237 nM
[2]
  IC50: 332 nM
[3]
  IC50: 0.6 nM
[4]
  IC50: 7 nM

## C[C@H](c1ncccn1)N(Cc1ccc(C(F)(F)F)cn1)C(=O)C(=O)Nc1cnc(N)c2c1cnn2C [Compound P1]
[6]
  CLint scaled at 1 h, 1 µM: 177 mL/min/kg
[1]
  IC50: 196 nM
[7]; microsomes
  CLint scaled at 1 h, 1 µM: 18 mL/min/kg
[4]
  IC50: 9 nM
  HCT116WT IMTAPdel selectivity: 22

## CN(C(=O)C(=O)Nc1cnc(N)c2c1cnn2C)C1COc2cc(C(F)(F)F)ccc21 (stereo not drawn) [Compound P2]
[1]
  IC50: 2680 nM
[7]; liver microsomes
  CLint scaled at 1 µM: 13 mL/min/kg
[4]
  IC50: 32 nM
  HCT116WT IMTAPdel selectivity: 84
[8]
  efflux ratio: 1.5
  Papp A→B: 13.5 ×10⁻⁶ cm/s
  Papp B→A: 20.5 ×10⁻⁶ cm/s

## C[C@@H]1CC[C@@H](c2ccc3scnc3c2)N(C(=O)C(=O)Nc2cnc(N)c3c2cnn3C)C1 (racemic) [Compound P3]
[1]
  IC50: 827 nM
[7]; liver microsomes
  CLint scaled at 1 h, 1 µM: 23.9 mL/min/kg
[4]
  IC50: 13 nM
[8]
  Papp A→B: 2.66 ×10⁻⁶ cm/s
  Papp B→A: 34.2 ×10⁻⁶ cm/s

## CN(C(=O)C(=O)Nc1cnc(N)c2c1cnn2C)[C@@H]1COCc2nc(C(F)(F)F)ccc21 [Compound P9a]
[6]
  CLint scaled at 1 µM: 10 mL/min/kg
[1]
  IC50: 4000 nM
[2]
  IC50: 2450 nM
[3]
  IC50: 0.9 nM
[3]; ratio SDMA IC50 wt / MTAPdel
  Selectivity wt/MTAPdel: 2722
[7]; liver microsomes
  CLint scaled at 1 µM: 2.1 mL/min/kg
[4]
  IC50: 12 nM
  HCT116WT IMTAPdel selectivity: 333
[8]
  efflux ratio: 2.9
  Papp A→B: 8.65 ×10⁻⁶ cm/s
  Papp B→A: 25.1 ×10⁻⁶ cm/s
[5]; female, CD1, mouse, in vivo
  F: 77%
[5]; [11]
  AUC(0-t): 3990 ng·h/mL
  C0: 5650 ng/mL
  clearance: 8.3 mL/min/kg
  half-life: 1.2 h
[5]; [12]
  AUC(0-t): 15400 ng·h/mL
  Cmax: 10800 ng/mL
  Tmax: 0.25 h
  half-life: 1.1 h

## CN(C(=O)C(=O)Nc1cnc(N)c2c1cnn2C)C1COc2cc(S(=O)(=O)C(F)(F)F)ccc21 (stereo not drawn) [Compound P33]
[1]
  IC50: 1460 nM
[9]
  efflux ratio: 4.2
[10]
  Papp A→B: 6.86 ×10⁻⁶ cm/s
  Papp B→A: 28.8 ×10⁻⁶ cm/s
[4]
  IC50: 9 nM
  HCT116WT IMTAPdel selectivity: 162

## CCN(C(=O)C(=O)Nc1cnc(N)c2c1cnn2C)[C@@H]1COc2cc(C(F)(F)F)ccc21 [Compound P19a]
[6]
  CLint scaled at 1 h, 1 µM: 110 mL/min/kg
[1]
  IC50: 1080 nM
[7]; microsomes
  CLint scaled at 1 h, 1 µM: 20 mL/min/kg
[4]
  IC50: 6 nM
  HCT116WT IMTAPdel selectivity: 181
[5]; mouse, in vivo
  F: 59%
[5]; mouse, in vivo, iv, 2 mg/kg
  AUC(0-t) at 24 h: 1480 ng·h/mL
  C0: 1210 ng/mL
  clearance: 21.5 mL/min/kg
  half-life: 2.1 h
[5]; mouse, in vivo, po, 10 mg/kg
  AUC(0-t) at 24 h: 4390 ng·h/mL
  Cmax: 1100 ng/mL
  Tmax: 0.5 h
  half-life: 6.8 h

## CCN(C(=O)C(=O)Nc1cnc(N)c2c1cnn2C)[C@@H]1COCc2nc(C(F)(F)F)ccc21 [Compound P28]
[1]
  IC50: 1190 nM
[9]
  efflux ratio: 3.2
[10]
  Papp A→B: 10.7 ×10⁻⁶ cm/s
  Papp B→A: 34 ×10⁻⁶ cm/s
[7]; liver microsomes
  CLint scaled at 1 µM: 4.8 mL/min/kg
[4]
  IC50: 10 nM
  HCT116WT IMTAPdel selectivity: 119
